Source: PubChem BioAssay (NCI)
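Growth conditions: 96-well plates. Treatment: test compound, 48 hours, 5 concentrations. Analysis: linear interpolation between bracketing concentrations; unreached endpoints set to highest concentration. Here, GI50 denotes the concentration required for 50% inhibition of growth. TGI is the concentration that stops growth completely.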

What was measured:
Experiment in all cases: growth of human tumour cells (NCI), 48 h
ACHN renal = system: ACHN renal
LOX IMVI melanoma = system: LOX IMVI melanoma
CAKI-1 renal = system: CAKI-1 renal
SK-OV-3 ovarian = system: SK-OV-3 ovarian
UACC-62 melanoma = system: UACC-62 melanoma
SK-MEL-5 melanoma = system: SK-MEL-5 melanoma
MOLT-4 leukemia = system: MOLT-4 leukemia
COLO 205 colon = system: COLO 205 colon
UO-31 renal = system: UO-31 renal
NCI-H226 lung = system: NCI-H226 lung

| SMILES | GI50 (ACHN renal) [µM] | TGI (ACHN renal) [µM] | GI50 (LOX IMVI melanoma) [µM] | TGI (LOX IMVI melanoma) [µM] | GI50 (CAKI-1 renal) [µM] | TGI (CAKI-1 renal) [µM] | GI50 (SK-OV-3 ovarian) [µM] | TGI (SK-OV-3 ovarian) [µM] | GI50 (UACC-62 melanoma) [µM] | TGI (UACC-62 melanoma) [µM] | GI50 (SK-MEL-5 melanoma) [µM] | TGI (SK-MEL-5 melanoma) [µM] | GI50 (MOLT-4 leukemia) [µM] | TGI (MOLT-4 leukemia) [µM] | GI50 (COLO 205 colon) [µM] | TGI (COLO 205 colon) [µM] | GI50 (UO-31 renal) [µM] | TGI (UO-31 renal) [µM] | GI50 (NCI-H226 lung) [µM] | TGI (NCI-H226 lung) [µM] |
| --- | --- | --- | --- | --- | --- | --- | --- | --- | --- | --- | --- | --- | --- | --- | --- | --- | --- | --- | --- | --- |
| O=C(OCc1ccc2c(Br)cc(Br)c(O)c2n1)c1cc2ccccc2[nH]1 | 0.352 | 1.27 | 0.185 | 0.405 | 0.505 | 1.86 | 6.03 | 18.6 | 1.16 | 2.47 | 1.61 | 2.99 | 0.488 | 2.49 | 0.511 | 1.84 | 0.406 | 1.19 | 1.42 | 3.11 |
| FC(F)(F)Oc1cccc(-c2cc(NCCCCCCNc3cc(-c4cccc(OC(F)(F)F)c4)nc4ccc(N5CCCC5)cc34)c3cc(N4CCCC4)ccc3n2)c1 |  |  | 1.85 | 3.54 | 1.65 | 3.01 | 1.78 | 3.36 | 1.77 | 3.16 | 1.77 | 3.22 |  |  |  |  | 1.54 | 2.88 | 1.86 | 3.69 |
| CCN=c1sc2c(n1NC(=O)c1cc3ccc1CCc1ccc(cc1)CC3)C(=O)c1ccccc1C2=O | 0.492 | 0.965 | 0.478 | 1.24 | 0.496 | 2.86 | 4.49 | 8.95 | 0.593 | 1.2 | 0.563 | 1.03 | 0.634 | 1.94 | 1.56 | 3.71 | 0.356 | 0.96 | 2.21 | 7.33 |
| O=C1C=C[C@H](O)[C@@]2(CO)O[C@@H]12 | 9.42 | 22 | 5.51 | 19.8 | 3.04 | 19.3 | 28.4 | > 96.1 | 4.55 | 14.3 | 16.1 | 29.7 | 2.99 | 16.5 | 1.84 | 3.55 | 10.4 | 24 | 17.3 | 50.7 |
| Cn1nccc1Nc1nccc(-c2ccn([C@H](CO)c3ccc(Cl)c(F)c3)c(=O)c2)n1 | 25 | > 100 | 3.72 | 28.1 | 34.3 | > 100 | 47.6 | > 100 | 0.0922 | > 59.3 | 12.5 | 43.3 | 24.4 | > 92.2 | 0.0649 | 16.7 | 24.7 | > 100 | 34.8 | > 100 |
| CN(C)CCCC1(c2ccc(F)cc2)OCc2cc(-c3cccc4[nH]ccc34)ccc21 (stereo unspecified) | 1.68 | 3.04 | 1.71 | 3.2 | 1.41 | 2.77 | 1.75 | 3.25 | 1.76 | 3.23 | 1.75 | 3.17 | 1.49 | 3.22 | 1.47 | 2.88 | 1.35 | 2.63 | 1.76 | 3.52 |
| COCC([C@@H](O)C(O)C(=O)NCC[C@@H](C)c1nc(/C=C/CC2OC3(C[C@H](O)C2C)OC(C(C[C@H](O)C(C)[C@H](O)C(C)/C=C(C)/C(C)=C/C=C/C(C)=C/C#N)OC)[C@@H](OP(=O)(O)O)C3(C)C)co1)N(C)C (stereo partly specified) |  | 0.000394 |  | 0.000561 |  | 0.000325 |  | 0.00154 |  | 0.000341 |  |  |  | 0.00248 |  | 0.000309 |  | 0.00279 |  | 0.000282 |
| CCN1C(=S)N(CC)C2C1NC(=S)N2/N=C/C=C/c1ccccc1OC (stereo unspecified) | 0.464 | 40.5 | 0.488 | 12.7 | 0.101 | 45.9 | 0.505 | > 100 | 0.33 | 25.6 | 0.137 | 3.53 | 0.464 | > 54.7 | 0.312 | 1.27 | 0.621 | > 93 | 0.903 | > 39.3 |
| N#CNC(N)=NCc1ccccc1 |  | > 100 |  | > 100 |  |  |  | > 100 |  |  |  | > 100 |  | > 100 |  | > 100 |  | > 100 |  | > 100 |
| COc1cc2oc(-c3ccc(O)cc3)cc(=O)c2c(O)c1C1OC(CO)C(O)C(O)C1O (stereo unspecified) |  | > 100 |  | > 100 |  | > 100 |  | > 100 |  | > 100 |  | > 100 |  | > 100 |  | > 100 |  | > 100 |  | > 100 |
| Cc1ccc(S(=O)(=O)OCC/C(=C\[Si](C)(C)C)c2ccccc2)cc1 |  | > 100 |  | > 100 |  | > 100 |  | > 100 |  | > 100 |  | > 100 |  | > 100 |  | > 100 |  | > 100 |  | > 100 |
| OCc1cc2c(cn1)[nH]c1ccc(NCc3ccccc3)cc12 |  | > 100 |  | > 100 |  | > 100 |  | 86.2 |  | 42.7 |  | 25.6 |  | 55.8 |  | 37 |  | 82.7 |  | 54.4 |
| CCCCCCCC(=O)OCC(COC(=O)C(C)(C)C)OC(=O)Cc1ccccc1 (stereo unspecified) |  | > 100 |  | > 100 |  | > 100 |  | > 100 |  | > 100 |  | > 100 |  | > 100 |  | > 100 |  | > 100 |  | > 100 |
| O=C1NC(=O)c2c1n(Cc1ccccc1)c(=O)n2Cc1ccccc1 |  | > 100 |  | > 100 |  | > 100 |  | > 100 |  | > 100 |  | > 100 |  | > 100 |  | > 100 |  | > 100 |  | > 100 |
| Cc1ccc2c(c1)CN1c3ccc(C)cc3CN2C1c1ccccc1O |  | > 100 |  | > 100 |  | > 100 |  | > 100 |  | > 100 |  | 30.5 |  | > 100 |  | > 100 |  | 88.2 |  | > 100 |
